Laboratory results as given in US9475798B2, “Azetidine estrogen receptor modulators and uses thereof” (Genentech, Inc., priority 2013, dated 2016).

Tests used:
[1] = test system: tamoxifen resistant MCF-7 tumors; test: Breast Cancer Model; Xenograft Assay (MCF-7 Derivative); format: in vivo; settings: female nu/nu mice
Procedure: Female nu/nu mice (with supplemental 17-β Estradiol pellets; 0.72 mg; 60 day slow release) bearing MCF-7 tumors (mean tumor volume 200 mm^3) were treated with Tamoxifen (citrate) by oral gavage. Tumor volume (length×width^2/2) and body weight were monitored twice weekly. Following a significant anti-tumor response in which tumor volume remained static, evident tumor growth was first observed at approximately 100 days of treatment. At 120 days of treatment, tamoxifen dose was increased. Rapidly growing tumors were deemed tamoxifen resistant and selected for in vivo passage into new host animals. Tumor Fragments (˜100 mm^3/animal) from the tamoxifen resistant tumors were subcutaneously implanted into the right flank of female nu/nu mice (with 17-β Estradiol pellets (0.72 mg; 60 day slow release)). Passaged tumors were maintained under constant Tamoxifen selection, and Tumor volume (length×width^2/2) was monitored weekly. When tumor volume reached ˜150-250 mm^3, animals were randomized into treatment groups (mean tumor volume 200 mm^3) and tamoxifen treatment was terminated (except for a tamoxifen control arm). Animals were treated with Vehicle or Compound daily for 4 weeks. Tumor volume and body weight were monitored twice weekly for the duration of the study. At the conclusion of the treatment period; plasma and tumor samples were taken for pharmacokinetic and pharmacodynamic analyses, respectively.

MCF-7 cells = test: Breast Cancer Cell Viability Assay (MCF7, CellTiter-Glo); settings: for MCF7 Viability Assay: % Viability relative to Fulvestrant: 5 days, 100-{100*[(100-% viability of Example)/(100-% viability of Fulvestrant)]}; for IC50: read-out: MCF7 Viability Assay IC50, 5 days' compound exposure;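 for all read-outs here: CellTiter-Glo luminescence read-out, background from cell-free medium subtracted, viability expressed against untreated cells, ten-point 1:5 compound dilution series spanning 10 to 0.000005 µM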

IC50 (MCF-7 cells) | Structure (SMILES) | Number of Tumors Smaller at t = 27 days than at Start of study (t = 0 days) ([1]; 10mpk oral dose each day) | Number of Tumors Smaller at t = 27 days than at Start of study (t = 0 days) ([1]; 30mpk oral dose each day) | Number of Tumors Smaller at t = 27 days than at Start of study (t = 0 days) ([1]; 100mpk oral dose each day) | MCF7 Viability Assay: % Viability relative to Fulvestrant (MCF-7 cells)
170 pM | CC1=C(c2ccc(F)cc2)[C@H](c2ccc(OCCN3CC(CF)C3)cc2)Oc2ccc(O)cc21 (single isomer, unassigned) [Example 3] | 2/8 | 3/8 | 5/8 | 8%
130 pM | CC1=C(c2cccc(O)c2)[C@H](c2ccc(OC[C@H](C)N3CC[C@@H](C)C3)cc2)Oc2ccc(O)cc21 [(S)-3-(3-Hydroxyphenyl)-4-methyl-2-(4-((S)-2-((R)-3-methylpyrrolidin-1-yl)propoxy)phenyl)-2H-chromen-6-ol, reference compound] | 0/8 | 1/8 | 1/8 | 8%
